Measured values as given in the NIST ThermoML archive (doi:10.1021/je060271a).

Conditions: 343.14 K, Liquid, Vibrating tube method

CCCC(=O)OCC(COC(=O)CCC)(COC(=O)CCC)COC(=O)CCC [pentaerythritol tetrabutyrate]
Conditions | mass density [kg/m3]
773.4 kPa | 1008.6
794.9 kPa | 1008.7
818 kPa | 1008.6
837.8 kPa | 1008.5
863.2 kPa | 1008.6
890.1 kPa | 1008.8
913.7 kPa | 1008.7
943.4 kPa | 1008.7
969.3 kPa | 1008.9
1002.1 kPa | 1008.8
1036.5 kPa | 1008.8
1072.5 kPa | 1008.9
1104.2 kPa | 1008.8
1144 kPa | 1008.9
1187.1 kPa | 1008.9
1225.3 kPa | 1009
1274.2 kPa | 1009
1324.7 kPa | 1009
1369.5 kPa | 1009.1
1428.4 kPa | 1009.2
1489.8 kPa | 1009.2
1539.7 kPa | 1009.3
1615.7 kPa | 1009.3
1656.6 kPa | 1009.4
1676.8 kPa | 1009.3
1697.6 kPa | 1009.4
1715.3 kPa | 1009.4
1736.3 kPa | 1009.5
1758.3 kPa | 1009.4
1780.4 kPa | 1009.4
1799.6 kPa | 1009.4
1823.1 kPa | 1009.5
1842.9 kPa | 1009.5
1866.6 kPa | 1009.7
1891.8 kPa | 1009.5
1912.6 kPa | 1009.6
1937.9 kPa | 1009.6
1964.7 kPa | 1009.5
1987.2 kPa | 1009.6
2014.1 kPa | 1009.7
2042.2 kPa | 1009.7
2065.8 kPa | 1009.6
2094.8 kPa | 1009.6
2125.5 kPa | 1009.8
2150.1 kPa | 1009.9
2180.8 kPa | 1009.8
2213.3 kPa | 1009.7
2247.3 kPa | 1009.8
2275.2 kPa | 1009.8
2308 kPa | 1009.8
2336.8 kPa | 1009.9
2371.5 kPa | 1009.8
2407 kPa | 1009.9
2443.3 kPa | 1009.9
2474.7 kPa | 1010
2513.3 kPa | 1010.1
2553.2 kPa | 1010
2587.6 kPa | 1010.1
2629.4 kPa | 1010
2672.7 kPa | 1009.9
2711.2 kPa | 1010.3
2794.1 kPa | 1010.3
2887.4 kPa | 1010.4
2936.4 kPa | 1010.4
2979.8 kPa | 1010.4
3032.3 kPa | 1010.4
3076.5 kPa | 1010.5
3130.6 kPa | 1010.4
3186.2 kPa | 1010.6
3242.9 kPa | 1010.6
3291.4 kPa | 1010.7
3352.4 kPa | 1010.6
3413.6 kPa | 1010.6
3465.5 kPa | 1010.7
3526.7 kPa | 1010.8
3578 kPa | 1010.8
3651.6 kPa | 1011
3705.3 kPa | 1011
3789.3 kPa | 1010.9
3822.9 kPa | 1011.1
3911.1 kPa | 1011.1
3990.2 kPa | 1011.2
4072.1 kPa | 1011.2
4144 kPa | 1011.3
4183.8 kPa | 1011.4
4214.1 kPa | 1011.4
4417.6 kPa | 1011.4
4449.7 kPa | 1011.6
4486.8 kPa | 1011.6
4507.9 kPa | 1011.5
4727.5 kPa | 1011.7
5057.9 kPa | 1012.1
5072.9 kPa | 1012.3
5076 kPa | 1012
5110.6 kPa | 1012.1
5117 kPa | 1012.1
5126.9 kPa | 1012.1
5150.9 kPa | 1012.2
5159.4 kPa | 1012.3
5175.5 kPa | 1012.1
5176 kPa | 1012.2
5178.4 kPa | 1012.2
5180.5 kPa | 1012.1
5180.7 kPa | 1012
5182.4 kPa | 1012.2
5183.8 kPa | 1012.3
5184.3 kPa | 1012.1
5185 kPa | 1012.1
5185.2 kPa | 1012.1
5185.5 kPa | 1012.2
5186.2 kPa | 1012.2
5187.3 kPa | 1012.1
5188.5 kPa | 1012.1
5189 kPa | 1012.2
5189.9 kPa | 1012.3
5190.4 kPa | 1012.1
5205.3 kPa | 1012.2
5219.3 kPa | 1012.2
5228.9 kPa | 1012.3
5236 kPa | 1012.2
5238.3 kPa | 1012.3
5248 kPa | 1012.2
5250.1 kPa | 1012.2
5252.5 kPa | 1012.2
5253.9 kPa | 1012.3
5256.1 kPa | 1012.2
5266.1 kPa | 1012.1
5282.2 kPa | 1012.2
5294.5 kPa | 1012.3
5310.3 kPa | 1012.2
5338.3 kPa | 1012.2
5338.4 kPa | 1012.1
5368.9 kPa | 1012.1
5399.8 kPa | 1012.4
5401.2 kPa | 1012.4
5439.1 kPa | 1012.3
5471.1 kPa | 1012.4
5509.5 kPa | 1012.4
5540.4 kPa | 1012.4
5575.9 kPa | 1012.5
5603.9 kPa | 1012.4
5635.2 kPa | 1012.6
5666.5 kPa | 1012.5
5693.6 kPa | 1012.5
5727 kPa | 1012.6
5754.8 kPa | 1012.6
5789.8 kPa | 1012.7
5820.2 kPa | 1012.7
5848.2 kPa | 1012.7
5882.8 kPa | 1012.5
5917.3 kPa | 1012.8
5983 kPa | 1012.8
6117.5 kPa | 1013
6146.4 kPa | 1012.8
6179.9 kPa | 1012.9
6208.2 kPa | 1012.9
6243.3 kPa | 1013
6271.8 kPa | 1012.9
6306.4 kPa | 1012.9
6341.3 kPa | 1013
6370.3 kPa | 1013.1
6406.6 kPa | 1013
6437.2 kPa | 1013.1
6473.6 kPa | 1013.1
6511 kPa | 1013.2
6542.8 kPa | 1013.3
6581.3 kPa | 1013.2
6611.2 kPa | 1013.2
6645.7 kPa | 1013.4
6673.9 kPa | 1013.3
6707.9 kPa | 1013.3
6736.2 kPa | 1013.4
6771.5 kPa | 1013.3
6800.7 kPa | 1013.3
6836.3 kPa | 1013.4
6866 kPa | 1013.4
6902.9 kPa | 1013.4
6934 kPa | 1013.6
6971 kPa | 1013.5
7008.4 kPa | 1013.5
7168 kPa | 1013.6
7200.4 kPa | 1013.7
7227.9 kPa | 1013.7
7261.2 kPa | 1013.7
7289.3 kPa | 1013.8
7323.9 kPa | 1013.9
7352.7 kPa | 1013.8
7387.4 kPa | 1014
7416.1 kPa | 1013.9
7450.6 kPa | 1013.8
7480.1 kPa | 1014
7515.7 kPa | 1014
7551.4 kPa | 1013.9
7581.6 kPa | 1013.9
7618.5 kPa | 1014
7649.6 kPa | 1014
7686.9 kPa | 1014
7718.3 kPa | 1014.2
7756.1 kPa | 1014.1
7788.3 kPa | 1014.2
7827 kPa | 1014.2
7866.3 kPa | 1014.2
7899.3 kPa | 1014.2
7932.8 kPa | 1014.4
7972.8 kPa | 1014.4
8013.9 kPa | 1014.3
8090.3 kPa | 1014.4
8125.6 kPa | 1014.5
8169.1 kPa | 1014.4
8205.4 kPa | 1014.5
8246 kPa | 1014.4
8283.5 kPa | 1014.5
8312 kPa | 1014.5
8346.8 kPa | 1014.6
8382.7 kPa | 1014.7
8723.4 kPa | 1014.9
8760.5 kPa | 1014.7
8798.7 kPa | 1014.8
8838.7 kPa | 1014.9
8871 kPa | 1015
8910.3 kPa | 1015.2
8943.4 kPa | 1015
9220.4 kPa | 1015.3
9262.8 kPa | 1015.3
9305.7 kPa | 1015.3
9342.7 kPa | 1015.3
9387.2 kPa | 1015.4
9430.1 kPa | 1015.4
9462.8 kPa | 1015.5
9499 kPa | 1015.3
9535.2 kPa | 1015.5
9572.1 kPa | 1015.6
9751.4 kPa | 1015.7
9783.6 kPa | 1015.7
10212 kPa | 1016
10254 kPa | 1016.1
10297 kPa | 1016.1
10334 kPa | 1015.9
10376 kPa | 1016
10420 kPa | 1016.1
10456 kPa | 1016.3
10500 kPa | 1016.3
10816 kPa | 1016.5
10866 kPa | 1016.5
10904 kPa | 1016.5
11274 kPa | 1016.8
11884 kPa | 1017.2
11921 kPa | 1017.2
11965 kPa | 1017.2
12003 kPa | 1017.3
12047 kPa | 1017.3
12093 kPa | 1017.5
12139 kPa | 1017.3
12178 kPa | 1017.4
12224 kPa | 1017.5
12271 kPa | 1017.5
12318 kPa | 1017.5
14882 kPa | 1019.5
14925 kPa | 1019.6
14968 kPa | 1019.5
15004 kPa | 1019.4
15048 kPa | 1019.5
15500 kPa | 1019.8
15576 kPa | 1019.8
17833 kPa | 1021.6
19181 kPa | 1022.6
19261 kPa | 1022.5
22923 kPa | 1025
23811 kPa | 1025.7
23859 kPa | 1025.7
23900 kPa | 1025.7
23948 kPa | 1025.8
23996 kPa | 1025.8
24046 kPa | 1025.8
25712 kPa | 1027
25761 kPa | 1026.9
25802 kPa | 1027
25851 kPa | 1027.1
25900 kPa | 1027.1
25940 kPa | 1027.1
25989 kPa | 1027.1
26037 kPa | 1027.1
26087 kPa | 1027.3
26128 kPa | 1027.2
26178 kPa | 1027.4
26627 kPa | 1027.5
26673 kPa | 1027.6
26708 kPa | 1027.6
26751 kPa | 1027.6
26793 kPa | 1027.7
26835 kPa | 1027.8
26872 kPa | 1027.7
26914 kPa | 1027.8
